In the supplement of paper PMC10307832:

Tests used:
Experiment in all cases: relative viability (nuclei count vs DMSO), 5 days (fraction); higher = more cells survive
Kobe2602 + OSI-027 = compound: C1=CC(=CC=C1NC(=S)NNC2=C(C=C(C=C2[N+](=O)[O-])C(F)(F)F)[N+](=O)[O-])F [Kobe2602] + COc1cccc2cc(-c3nc([C@H]4CC[C@H](C(=O)O)CC4)n4ncnc(N)c34)[nH]c12 [OSI-027] (partner 0.5 µM)
Method in brief: (§1)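 Lung cancer cell lines, seeded in 1536-well plates, were treated the following day by pin tool with a single drug or with five library-drug doses (not always all listed) in √10 steps on top of a fixed anchor-drug dose. Cells were fixed and nuclei stained in one step after 5 days, and nuclei were counted. Relative viability is the nuclei count for treated wells divided by that for vehicle wells, reported as medians of duplicate plates.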

Kobe2602 + Dasatinib = compound: C1=CC(=CC=C1NC(=S)NNC2=C(C=C(C=C2[N+](=O)[O-])C(F)(F)F)[N+](=O)[O-])F [Kobe2602] + Cc1nc(Nc2ncc(C(=O)Nc3c(C)cccc3Cl)s2)cc(N2CCN(CCO)CC2)n1 [Dasatinib] (partner 0.075 µM)
Method in brief: as §1

[1] = compound: COc1cc2nccc(Oc3ccc(NC(=O)C4(C(=O)Nc5ccc(F)cc5)CC4)cc3)c2cc1OC [Cabozantinib] + CC(=O)Nc1cccc(-n2c(=O)n(C3CC3)c(=O)c3c(Nc4ccc(I)cc4F)n(C)c(=O)c(C)c32)c1 [Trametinib] (partner 0.02 µM)
Method in brief: as §1

[2] = compound: COc1cc2nccc(Oc3ccc(NC(=O)C4(C(=O)Nc5ccc(F)cc5)CC4)cc3)c2cc1OC [Cabozantinib] + N=C(N)NC(=N)NCCc1ccccc1 [Phenformin] (partner 250 µM)
Method in brief: as §1

Cell Line	relative viability (Kobe2602 + OSI-027; first compound 0.2 µM)	relative viability (Kobe2602 + OSI-027; first compound 0.6325 µM)	relative viability (Kobe2602 + OSI-027; first compound 2 µM)	relative viability (Kobe2602 + OSI-027; first compound 6.325 µM)	relative viability (Kobe2602 + OSI-027; first compound 20 µM)	relative viability (Kobe2602 + Dasatinib; first compound 0.2 µM)	relative viability (Kobe2602 + Dasatinib; first compound 0.6325 µM)	relative viability (Kobe2602 + Dasatinib; first compound 2 µM)	relative viability (Kobe2602 + Dasatinib; first compound 6.325 µM)	relative viability (Kobe2602 + Dasatinib; first compound 20 µM)	relative viability ([1]; first compound 0.02 µM)	relative viability ([1]; first compound 0.06325 µM)	relative viability ([1]; first compound 0.2 µM)	relative viability ([1]; first compound 0.6325 µM)	relative viability ([1]; first compound 2 µM)	relative viability ([2]; first compound 0.02 µM)	relative viability ([2]; first compound 0.06325 µM)	relative viability ([2]; first compound 0.2 µM)	relative viability ([2]; first compound 0.6325 µM)	relative viability ([2]; first compound 2 µM)
HCC-366	0.727	0.975	0.886	0.847	0.894	0.613	0.632	0.597	0.646	0.727	0.409	0.334	0.35	0.285	0.272	0.675	0.612	0.653	0.623	0.581
NCI-H3122	0.902	0.903	0.957	0.853	1.12	0.853	0.806	0.739	0.465	1	0.192	0.241	0.238	0.238	0.281	0.45	0.423	0.374	0.333	0.324
NCI-H1650	0.546	0.756	0.546	0.631	0.676	0.285	0.396	0.285	0.255	0.227	0.656	0.615	0.391	0.643	0.691	0.434	0.556	0.395	0.43	0.376
NCI-H1355	0.395	0.389	0.411	0.41	0.441	0.647	0.737	0.683	0.664	0.627	0.433	0.462	0.441	0.421	0.435	0.435	0.516	0.475	0.436	0.424
NCI-H2170	0.736	0.755	0.7	0.658	0.791	0.632	0.544	0.496	0.558	0.592	0.927	0.921	0.896	0.922	0.95	0.468	0.418	0.425	0.365	0.353
NCI-H1734	0.657	0.68	0.619	0.588	0.745	0.425	0.543	0.432	0.478	0.468	0.738	0.665	0.716	0.623	0.597	0.368	0.395	0.403	0.406	0.355
LXF-289	0.836	0.836	0.777	0.879	0.87	0.253	0.23	0.248	0.208	0.245	0.735	0.654	0.659	0.719	0.695	0.524	0.544	0.5	0.508	0.493
SK-LU-1	0.329	0.365	0.359	0.327	0.371	0.18	0.184	0.177	0.17	0.187	0.475	0.58	0.623	0.4	0.451	0.587	0.791	0.552	0.476	0.438
NCI-H2087	0.695	0.544	0.501	0.574	0.652	0.932	0.892	0.747	0.844	0.924	0.166	0.258	0.216	0.195	0.209	0.422	0.455	0.471	0.429	0.456
SK-MES-1	0.591	0.637	0.488	0.642	0.226	0.368	0.489	0.4	0.415	0.305	0.605	0.666	0.615	0.535	0.533	0.701	0.688	0.705	0.667	0.631
HCC-78	0.39	0.375	0.722	0.385	0.44	0.413	0.393	0.373	0.427	0.535		0.515	0.412	0.318	0.321		0.733	0.335	0.383	0.383
NCI-H1793	0.252	0.218	0.238	0.275	0.327	0.367	0.4	0.361	0.397	0.398	0.489	0.428		0.432	0.341	0.347	0.441	0.303	0.326	0.296
NCI-H2228	0.658	0.684	0.549	0.416	0.722	0.415	0.549	0.504	0.502	0.529	0.4	0.61	0.594	0.704	0.479	0.392	0.359	0.298	0.471	0.35
H3255	0.52	0.73	0.613	0.605	0.564	0.532	0.42	0.408	0.356	0.349	0.687	0.639		0.749	0.64	0.331	0.393		0.346	0.37
HCC-15	0.629	0.723	0.616	0.676	0.637	0.586	0.658	0.555	0.574	0.494	0.417	0.373	0.36	0.356	0.314	0.366	0.532	0.512	0.478	0.491
PC-14	0.836	0.887	0.87	0.792	0.339	0.253	0.253	0.259	0.211	0.139	0.81	0.955		0.755	0.685	0.531	0.93		0.591	0.552
